One data set relates to Emesis in the dog. Briefly: Emesis in the dog (apomorphine-induced retching and vomiting). It counts as in vivo. The conditions noted are these: dose of 0.32 mg/kg i.v., 5 min before subcutaneous apomorphine (0.1 mg/0.5 ml/kg), observed for 60 min. The protocol: Individually housed adult female dogs (8 to 15 kg) were given an i.v. injection of a solution containing a test compound. 5 Min later the emetic responses (retching and vomiting) were induced by administration of subcutaneous apomorphine (0.1 mg/0.5 ml/kg) and observed for the next 60 min. The timing and number of retches and vomits observed were recorded for each animal. An individual animal was tested with at least 10 days between experiments.

For orientation: melting point means the temperature, or range, at which the solid turns liquid.

On to `COc1cc(C[C@@H]2CN(CCCc3cccnc3)CCN2C(=O)c2cc(C(F)(F)F)cc(C(F)(F)F)c2)ccc1F.Cl.Cl`, for which the melting point was in the range of 125 to 130 °C.
In turn, `Cl.Cl.O=C(c1cc(C(F)(F)F)cc(C(F)(F)F)c1)N1CCN(CCCc2cccnc2)C[C@H]1Cc1ccc(Cl)cc1` gave a melting point of 60 to 100 °C.
Consider `Cl.Cn1cc(CN2CCN(C(=O)c3cc(C(F)(F)F)cc(C(F)(F)F)c3)[C@H](Cc3ccc(F)cc3)C2)cn1`, for which the melting point is 143.3 to 146.4 °C.
Compound `COc1cc(C(=O)N2CCN(Cc3cnn(C)c3)C[C@H]2Cc2ccc(Cl)c(O)c2)cc(C(F)(F)F)c1.Cl` had a melting point of 140 to 150 °C.
As to `COC[C@@H]1CN(CCN2CCN(C(=O)c3cc(C(F)(F)F)cc(S(=O)(=O)N4CCOCC4)c3)[C@H](Cc3ccc(C)c(O)c3)C2)CCO1.Cl.Cl`, the melting point lay within 130 to 175 °C.
Compound `Cc1ccc(C[C@@H]2CN(Cc3cnn(CCO)c3)CCN2C(=O)c2cc(C(F)(F)F)cc(C(F)(F)F)c2)cc1O.Cl` displayed a melting point of 140 to 156 °C.
As to `COC[C@@H]1CN(CCN2CCN(C(=O)c3cc(N(C)C)cc(C(F)(F)F)c3)[C@H](Cc3ccc(C)c(O)c3)C2)CCO1.Cl.Cl`, the melting point was 182 to 186 °C.
Compound `Cc1ccc(C[C@@H]2CN(CCN3CCc4sccc4C3)CCN2C(=O)c2cc(C(F)(F)F)cc(C(F)(F)F)c2)cc1O.Cl.Cl` had a melting point of 245 to 265 °C.
`CSc1cc(C(=O)N2CCN(CCN3C[C@@H](C)O[C@@H](C)C3)C[C@H]2Cc2ccc(Cl)cc2)cc(C(F)(F)F)c1.Cl.Cl` gave a melting point of 138.4 to 142.5 °C.
Compound `C[C@@H]1CN(CCN2CCN(C(=O)c3cc(C(F)(F)F)cc(S(=O)(=O)N(C)C)c3)[C@H](Cc3ccc(Cl)cc3)C2)C[C@H](C)O1.Cl.Cl` registered a melting point of 209.6 to 213.7 °C.
Regarding `C[C@@H]1CN(CCN2CCN(C(=O)c3cc(-n4cccc4)cc(C(F)(F)F)c3)[C@H](Cc3ccc(Cl)cc3)C2)C[C@H](C)O1.Cl.Cl`, the melting point fell in the range of 152.7 to 157.9 °C.
On the same count and under the same terms, the value for `C[C@@H]1CN(CCN2CCN(C(=O)c3cc(Cl)cc(C(F)(F)F)c3)[C@H](Cc3ccc(Cl)cc3)C2)C[C@H](C)O1.Cl.Cl` was 136.4 to 141 °C; that for `Cc1cc(C(=O)N2CCN(CCN3C[C@@H](C)O[C@@H](C)C3)C[C@H]2Cc2ccc(Cl)cc2)cc(C(F)(F)F)c1.Cl.Cl` was 82.3 to 88.2 °C.
`COC[C@@H]1CN(CC#CCN2CCN(C(=O)c3cc(C(F)(F)F)cc(C(F)(F)F)c3)[C@H](Cc3ccc(C)c(O)c3)C2)CCO1.Cl.Cl` had a melting point of 110 to 130 °C.
Consider `Cc1ccc(C[C@@H]2CN(Cc3nc(N(C)C)no3)CCN2C(=O)c2cc(C(F)(F)F)cc(C(F)(F)F)c2)cc1O.Cl.Cl`, for which the melting point lay within 140 to 150 °C.
The same measure, in the same setting: under `COC[C@@H]1CN(CCN2CCN(C(=O)c3cc(C(F)(F)F)cc(C(F)(F)F)c3)[C@H](Cc3ccc(C(F)(F)F)cc3)C2)C[C@H](COC)O1.Cl.Cl` stands 130 to 138 °C.
Compound `COC[C@@H]1C[C@@H](OC)CN1CCN1CCN(C(=O)c2cc(C(F)(F)F)cc(C(F)(F)F)c2)[C@H](Cc2ccc(Cl)c(O)c2)C1.Cl.Cl` gave a melting point of 95 to 105 °C.
Turning to `CS(=O)(=O)c1cc(C(=O)N2CCN(CCN3CCc4ncccc4C3)C[C@H]2Cc2ccc(C(F)(F)F)cc2)cc(C(F)(F)F)c1.Cl.Cl.Cl`, the melting point was in the range of 192 to 197 °C.
The compound `CO[C@H]1CN(CCN2CCN(C(=O)c3cc(C(F)(F)F)cc(C(F)(F)F)c3)[C@H](Cc3ccc(C(F)(F)F)cc3)C2)C[C@@H]1OC.Cl.Cl` had a melting point of 203 to 208 °C.
For `Cl.Cl.O=C(c1cc(C(F)(F)F)cc(C(F)(F)F)c1)N1CCN(CCN2C[C@H](O)[C@@H](O)C2)C[C@H]1Cc1ccc(C(F)(F)F)cc1`, the melting point lay within 154 to 159 °C.
Take `C[C@@H]1CN(CCN2CCN(C(=O)c3cc(-c4ccncc4)cc(C(F)(F)F)c3)[C@H](Cc3ccc(C(F)(F)F)cc3)C2)C[C@H](C)O1.Cl.Cl.Cl`: the melting point lay within 135 to 145 °C.
Compound `COC[C@@H]1CN(CCN2CCN(C(=O)c3cc(SC)cc(C(F)(F)F)c3)[C@H](Cc3ccc(F)c(OC)c3)C2)CCO1.Cl.Cl` gave a melting point of 132 to 135 °C.
`COC[C@@H]1CN(CCN2CCN(C(=O)c3cc(C(F)(F)F)cc(S(=O)(=O)C4CCCC4)c3)[C@H](Cc3ccc(Cl)cc3)C2)CCO1.Cl.Cl`: the melting point is above 230 °C.
Consider `COC[C@@H]1CN(CCN2CCN(C(=O)c3cc(Cl)cc(C(F)(F)F)c3)[C@H](Cc3ccc(Cl)cc3)C2)CCO1.Cl.Cl`, for which the melting point was in the range of 148 to 153 °C.
Turning to `Cl.Cl.O=C(c1cc(C(F)(F)F)cc(C(F)(F)F)c1)N1CCN(Cc2c[nH]c3cccnc23)C[C@H]1Cc1ccc(Cl)c(O)c1`, the melting point was 208 to 211 °C.
Still for that read-out and setting: the value for `C[C@@H]1CN(CCN2CCN(C(=O)c3cc(C(F)(F)F)cc(C(F)(F)F)c3)[C@H](Cc3ccc(F)c(O)c3)C2)C[C@H](C)O1.Cl.Cl` was 170 to 195 °C; that for `Cl.Cl.O=C(c1cc(C(F)(F)F)cc(C(F)(F)F)c1)N1CCN(Cc2cccnc2)C[C@H]1Cc1ccc(F)c(F)c1` was 203 to 208 °C.
As to `Cl.Cl.Cl.O=C(c1cc(C(F)(F)F)cc(C(F)(F)F)c1)N1CCN(CCN2CCc3ncccc3C2)C[C@H]1Cc1ccc(C(F)(F)F)cc1`, the melting point was 174 to 180 °C.
Compound `CC1(C)COCCN1CC#CCN1CCN(C(=O)c2cc(C(F)(F)F)cc(C(F)(F)F)c2)[C@H](Cc2ccc(Cl)cc2)C1.Cl.Cl` yielded a melting point of 120 to 150 °C.
On the same count and under the same terms, under `COC[C@@H]1CN(CCN2CCN(C(=O)c3cc(OC)cc(C(F)(F)F)c3)[C@H](Cc3ccc(F)cc3)C2)CCO1.Cl.Cl` stands 109.5 to 119.2 °C.
In turn, `COc1cc(C(=O)N2CCN(CCN3C[C@@H](C)O[C@@H](C)C3)C[C@H]2Cc2ccc(F)cc2)cc(C(F)(F)F)c1.Cl.Cl` had a melting point of 70.3 to 85.2 °C.
In turn, `Cl.Cl.O=C(c1cc(C(F)(F)F)cc(C(F)(F)F)c1)N1CCN(CCN2CCC(F)(F)CC2)C[C@H]1Cc1ccc2ccccc2c1` yielded a melting point above 250 °C.
On to `COc1cc(C(=O)N2CCN(Cc3cnn(C)c3)C[C@H]2Cc2c[nH]c3ccccc23)cc(C(F)(F)F)c1.Cl`, for which the melting point fell in the range of 210 to 220 °C.
The same measure, in the same setting: under `COc1cc(C(=O)N2CCN(Cc3cccnc3)C[C@H]2Cc2c[nH]c3ccccc23)cc(C(F)(F)F)c1.Cl.Cl` stands 190 to 200 °C.
The same measure, in the same setting: the value for `COc1cc(C(=O)N2CCN(CCCc3cccnc3)C[C@H]2Cc2c[nH]c3ccccc23)cc(C(F)(F)F)c1.Cl.Cl` was 135 to 145 °C; that for `COc1cc(C(=O)N2CCN(CCN3CCc4ncccc4C3)C[C@H]2Cc2c[nH]c3ccccc23)cc(C(F)(F)F)c1.Cl.Cl.Cl` was 180 to 190 °C.
On to `Cc1ccc(CC2CN(CCN3C[C@@H](C)O[C@@H](C)C3)CCN2C(=O)c2cc(C(F)(F)F)cc(C(F)(F)F)c2)cc1O.Cl.Cl` (relative stereo) [Example 4-(1), 1-[3,5-Bis(trifluoromethyl)benzoyl]-4-[2-(cis-2,6-dimethylmorpholino)ethyl]-2-(3-hydroxy-4-methylbenzyl)piperazine dihydrochloride], for which the melting point lay within 188 to 200 °C. The “inhibition rate of emesis in the dog” value in the data set with Emesis in the dog is given as 100%.
Take `COC[C@@H]1CN(CCN2CCN(C(=O)c3cc(C(F)(F)F)cc(C(F)(F)F)c3)C(Cc3ccc(C)c(O)c3)C2)[C@@H](C)CO1.Cl.Cl` (stereo partly drawn) [4-(2), 1-[3,5-Bis(trifluoromethyl)benzoyl]-2-(3-hydroxy-4-methylbenzyl)-4-[2-[(2S,5S)-2-methoxymethyl-5-methylmorpholino]ethyl]piperazine dihydrochloride]: the melting point lay within 214 to 218 °C.
`COC[C@@H]1CN(CCN2CCN(C(=O)c3cc(C(F)(F)F)cc(C(F)(F)F)c3)[C@H](Cc3ccc(C)c(O)c3)C2)CCO1.Cl.Cl` [Example 5-(1)] displayed a melting point of 207 to 210 °C.
In turn, `Cc1ccc(CC2CN(CC#Cc3cccnc3)CCN2C(=O)c2cc(C(F)(F)F)cc(C(F)(F)F)c2)cc1O.Cl.Cl` (centres unmarked) [Example 7, 1-[3,5-bis(trifluoromethyl)benzoyl]-2-(3-hydroxy-4-methylbenzyl)-4-[3-(3-pyridyl)-2-propynyl]piperazine dihydrochloride] displayed a melting point of 180 to 190 °C.
In turn, `Cc1ccc(CC2CN(CCCc3cccnc3)CCN2C(=O)c2cc(C(F)(F)F)cc(C(F)(F)F)c2)cc1O.Cl.Cl` (centres unmarked) [Example 8, 1-[3,5-bis(trifluoromethyl)benzoyl]-2-(3-hydroxy-4-methylbenzyl)-4-[3-(3-pyridyl)propyl]piperazine dihydrochloride] gave a melting point of 60 to 70 °C.
As to `O=C(c1cc(C(F)(F)F)cc(C(F)(F)F)c1)N1CCN(CC#Cc2cccnc2)C[C@H]1Cc1ccc(C(F)(F)F)cc1` [Example 9-(53), (2R)-1-[3,5-Bis(trifluoromethyl)benzoyl]-4-[3-(3-pyridyl)-2-propynyl]-2-[4-(trifluoromethyl)benzyl]-piperazine], the melting point was 142 to 143 °C.
The compound `COC[C@@H]1CN(CCN2CCN(C(=O)c3cc(C(F)(F)F)cc(C(F)(F)F)c3)[C@H](Cc3ccc(C)c(O)c3)C2)CCO1.Cl.Cl` [Example 13] yielded a melting point of 206 to 224.5 °C.

Values taken from patent publication US7166598B2, “Piperazine derivatives” (Astellas Pharma Inc., priority 1998, dated 2007).
